Test results: ChEMBL document CHEMBL4393673, “Design, synthesis and biological evaluation of pyridine-chalcone derivatives as novel microtubule-destabilizing agents” (Eur J Med Chem, 2019)

Legend:
K562 = assay: Antiproliferative activity against human K562 cells assessed as reduction in cell viability after 72 hrs by MTT assay; type: functional, cell-based; conditions: K562, 72 h
[1] = Antiproliferative activity against […] cells assessed as reduction in cell viability after 72 hrs by MTT assay; type: functional, cell-based; conditions: H22, 72 h
Tubulin = assay: Inhibition of tubulin polymerization (unknown origin) in presence of GTP measured after 60 mins by spectrophotometric method; type: protein-complex assay, Homo sapiens
Tubulin (Sus scrofa) [2] = target: T1, Tubulin (Sus scrofa) (UniProt P02554+P02550); assay: Inhibition of [3H]colchicine binding to biotinylated porcine tubulin at 1 uM in presence of GTP after 2 hrs by scintillation proximity assay relative to control; type: protein assay
Tubulin (Sus scrofa) [3] = target: T1, Tubulin (Sus scrofa); assay: Inhibition of [3H]colchicine binding to biotinylated porcine tubulin at 5 uM in presence of GTP after 2 hrs by scintillation proximity assay relative to control; type: protein assay
L02 = assay: cells; conditions: Homo sapiens, L02, 72 h
Description: Cytotoxicity against human LO2 cells assessed as reduction in cell viability after 72 hrs by MTT assay

H22 [4] = assay: Antitumor activity against mouse H22 cells allografted in ICR mouse assessed as reduction in tumour weight at 6 mg/kg, iv administered once per 2 days for 21 days relative to control; type: functional
[5] = Toxicity in ICR mouse allografted with mouse H22 cells assessed as body weight loss at 6 mg/kg, iv administered once per 2 days for 21 days; type: organism-based; conditions: in vivo
KB = assay: Antiproliferative activity against human KB cells assessed as reduction in cell viability after 72 hrs by MTT assay; type: functional, cell-based
HCT-8 = assay: Antiproliferative activity against human HCT8 cells assessed as reduction in cell viability after 72 hrs by MTT assay; type: functional, cell-based; conditions: HCT-8, 72 h
H22 [6] = assay: Antitumor activity against mouse H22 cells allografted in ICR mouse assessed as reduction in tumour weight at 20 mg/kg, iv administered once per day for 21 days relative to control; type: functional; conditions: 504 h
MDA-MB-231 = assay: cells; conditions: Homo sapiens, MDA-MB-231, 72 h
Description: Antiproliferative activity against human MDA-MB-231 cells assessed as reduction in cell viability after 72 hrs by MTT assay

Tubulin (Homo sapiens) [7] = target: T2, Tubulin (Homo sapiens) (UniProt P68371+Q9H4B7+P0DPH7+P68366+Q13509+Q71U36+P04350+Q3ZCM7+P07437+P68363+Q9BQE3+Q6PEY2+Q13885+Q9BVA1+Q9BUF5); assay: Inhibition of tubulin polymerization in human K562 cells assessed as disruption of cytosolic microtubule networks after 24 hrs by DAPI staining based immunofluorescence microscopic method; type: cell-based
Tubulin (Homo sapiens) [8] = target: T2, Tubulin (Homo sapiens); assay: Inhibition of tubulin polymerization in human MDA-MB-231 cells assessed as disruption of cytosolic microtubule networks after 24 hrs by DAPI staining based immunofluorescence microscopic method; type: cell-based

T1 sequence (P02550 whole entry, looked up): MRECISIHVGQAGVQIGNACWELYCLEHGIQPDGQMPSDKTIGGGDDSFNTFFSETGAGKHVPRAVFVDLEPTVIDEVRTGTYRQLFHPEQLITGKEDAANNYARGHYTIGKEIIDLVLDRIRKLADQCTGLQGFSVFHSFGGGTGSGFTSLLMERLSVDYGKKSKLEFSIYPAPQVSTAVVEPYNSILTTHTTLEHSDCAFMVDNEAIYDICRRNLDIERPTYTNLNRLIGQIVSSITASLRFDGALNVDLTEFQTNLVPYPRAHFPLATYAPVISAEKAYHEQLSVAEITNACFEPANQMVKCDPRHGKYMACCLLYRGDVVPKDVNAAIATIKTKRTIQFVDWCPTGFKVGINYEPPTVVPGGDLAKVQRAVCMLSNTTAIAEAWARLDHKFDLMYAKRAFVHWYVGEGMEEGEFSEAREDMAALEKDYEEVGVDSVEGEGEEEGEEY
T1 sequence (P02554 whole entry, looked up): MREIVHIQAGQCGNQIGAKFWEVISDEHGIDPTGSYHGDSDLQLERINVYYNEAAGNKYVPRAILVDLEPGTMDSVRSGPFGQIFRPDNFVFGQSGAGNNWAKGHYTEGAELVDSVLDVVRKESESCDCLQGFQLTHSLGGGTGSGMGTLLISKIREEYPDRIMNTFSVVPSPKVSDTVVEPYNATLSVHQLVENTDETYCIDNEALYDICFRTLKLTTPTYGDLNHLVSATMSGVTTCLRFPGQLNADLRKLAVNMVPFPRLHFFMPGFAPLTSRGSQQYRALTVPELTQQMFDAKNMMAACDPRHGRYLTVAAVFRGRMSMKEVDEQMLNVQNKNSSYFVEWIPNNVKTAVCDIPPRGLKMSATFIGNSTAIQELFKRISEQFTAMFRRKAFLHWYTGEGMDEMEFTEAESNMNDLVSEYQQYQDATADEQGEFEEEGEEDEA

Row | IC50 (Tubulin) [nM] | inhibition (Tubulin (Sus scrofa) [2]) [%] | inhibition (Tubulin (Sus scrofa) [3]) [%] | SMILES | IC50 [1] [nM] | inhibition in vivo at 20 mg/kg (H22 [6]) [%] | other results
1 | 3050 | 70.2 | 78.3 | COc1ccc(/C=C/C(=O)c2cc(OC)c(OC)c(OC)c2)cc1O | 132 |  | IC50 (K562): 68 nM; IC50 (L02): 421 nM
2 |  |  |  | CC(=O)O[C@H]1C(=O)[C@@]2(C)[C@H]([C@H](OC(=O)c3ccccc3)[C@]3(O)C[C@H](OC(=O)[C@H](O)[C@@H](NC(=O)c4ccccc4)c4ccccc4)C(C)=C1C3(C)C)[C@]1(OC(C)=O)CO[C@@H]1C[C@@H]2O [PACLITAXEL] |  |  | inhibition in vivo at 6 mg/kg (H22 [4]): 72.7%; Activity [5]: Toxic
3 |  |  |  | COc1ccc(/C=C\c2cc(OC)c(OC)c(OC)c2)cc1O [COMBRETASTATIN A4] | 8 | 50.9 | IC50 (KB): 11 nM; IC50 (HCT-8): 10 nM; IC50 (MDA-MB-231): 10 nM
4 |  |  |  | COc1ccc(/C=C\c2cc(OC)c(OC)c(OC)c2)cc1OP(=O)(O)O [FOSBRETABULIN DISODIUM] |  | 62.7 | 
5 | 2080 | 75.1 | 87.9 | COc1cc(C(=O)/C(C)=C/c2ccc(OC)c(O)c2)cc(OC)n1 |  |  | Activity (Tubulin (Homo sapiens) [7]): Dose-dependent effect; Activity (Tubulin (Homo sapiens) [8]): Dose-dependent effect
